Results published in the supplement of paper PMC6045584.
± gives the standard deviation of the averaged measurements.

Columns and labels:
GEFITINIB = compound: COc1cc2ncnc(Nc3ccc(F)c(Cl)c3)c2cc1OCCCN1CCOCC1 [GEFITINIB]; test: surviving fraction relative to DMSO-only wells; higher = less growth inhibition; conditions: exposure time: 5 days
Outline: (§1)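 Tumour cell lines were grown to log phase and seeded at 250–500 cells per well in 384-well plates. They were exposed continuously to inhibitors at 0.5, 1, 5, 10, 50, 100, 500 and 1000 nM for five days, beginning 24 hours after seeding. Surviving fraction is CellTiter-Glo luminescence normalised to the median of DMSO-only wells.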

CELECOXIB = compound: Cc1ccc(-c2cc(C(F)(F)F)nn2-c2ccc(S(N)(=O)=O)cc2)cc1 [CELECOXIB]; test: as above; conditions: exposure time: 5 days
Outline: as §1

Row | Test System | surviving fraction (GEFITINIB; 0.5 nM) | surviving fraction (GEFITINIB; 1 nM) | surviving fraction (GEFITINIB; 5 nM) | surviving fraction (GEFITINIB; 10 nM) | surviving fraction (GEFITINIB; 50 nM) | surviving fraction (GEFITINIB; 100 nM) | surviving fraction (GEFITINIB; 500 nM) | surviving fraction (GEFITINIB; 1000 nM) | surviving fraction (CELECOXIB; 0.5 nM) | surviving fraction (CELECOXIB; 1 nM) | surviving fraction (CELECOXIB; 5 nM) | surviving fraction (CELECOXIB; 10 nM) | surviving fraction (CELECOXIB; 50 nM) | surviving fraction (CELECOXIB; 100 nM) | surviving fraction (CELECOXIB; 500 nM) | surviving fraction (CELECOXIB; 1000 nM)
1 | NY BONE | 0.999 ± 0.032 | 1 ± 0.035 | 1.09 ± 0.036 | 1.06 ± 0.031 | 1.07 ± 0.026 | 1.14 ± 0.016 | 0.998 ± 0.019 | 0.969 ± 0.032 | 0.989 ± 0.03 | 1.04 ± 0.041 | 1.09 ± 0.038 | 1.08 ± 0.022 | 1.11 ± 0.047 | 1.1 ± 0.039 | 1.01 ± 0.021 | 1.01 ± 0.053
2 | JIMT1 BREAST | 1.02 ± 0.051 | 1.02 ± 0.016 | 1.03 ± 0.028 | 1.02 ± 0.022 | 1.06 ± 0.027 | 1.03 ± 0.046 | 0.811 ± 0.043 | 0.773 ± 0.047 | 1.04 ± 0.039 | 1.04 ± 0.023 | 1.06 ± 0.039 | 1.08 ± 0.051 | 1.04 ± 0.021 | 1.08 ± 0.015 | 1.08 ± 0.062 | 1.07 ± 0.024
3 | ZR751 BREAST | 1.22 ± 0.054 | 1 ± 0.1 | 1.13 ± 0.067 | 0.983 ± 0.046 | 0.901 ± 0.071 | 0.994 ± 0.035 | 0.734 ± 0.034 | 0.802 ± 0.12 | 1.1 ± 0.19 | 1.1 ± 0.077 | 1.05 ± 0.07 | 1.07 ± 0.076 | 1.09 ± 0.084 | 1.15 ± 0.1 | 1.06 ± 0.026 | 1.04 ± 0.19
4 | SCC47 HEADNECK | 1.1 ± 0.034 | 1.1 ± 0.058 | 1.12 ± 0.043 | 1.06 ± 0.053 | 0.993 ± 0.017 | 0.899 ± 0.028 | 0.649 ± 0.018 | 0.602 ± 0.039 | 1.08 ± 0.089 | 1.11 ± 0.092 | 1.09 ± 0.096 | 1.12 ± 0.067 | 1.094 ± 0.0075 | 1.1 ± 0.026 | 1.1 ± 0.054 | 1.11 ± 0.033
5 | MCF7 BREAST | 0.935 ± 0.02 | 0.921 ± 0.032 | 0.924 ± 0.042 | 0.935 ± 0.023 | 0.965 ± 0.017 | 0.951 ± 0.046 | 0.979 ± 0.02 | 0.964 ± 0.027 | 0.933 ± 0.053 | 0.922 ± 0.05 | 0.938 ± 0.013 | 0.927 ± 0.035 | 0.937 ± 0.042 | 0.942 ± 0.093 | 1 ± 0.011 | 1.01 ± 0.033
6 | 143B BONE | 1.07 ± 0.023 | 1.08 ± 0.075 | 1.11 ± 0.084 | 1.1 ± 0.033 | 1.14 ± 0.077 | 1.12 ± 0.054 | 1.14 ± 0.11 | 1.13 ± 0.15 | 0.999 ± 0.011 | 1.04 ± 0.03 | 1.07 ± 0.057 | 1.05 ± 0.0021 | 1.08 ± 0.052 | 1.14 ± 0.072 | 1.08 ± 0.05 | 1.08 ± 0.033
7 | OS25HAL BONE | 1.04 ± 0.052 | 1.04 ± 0.041 | 1.06 ± 0.035 | 1.09 ± 0.066 | 1.09 ± 0.069 | 1.15 ± 0.019 | 1.08 ± 0.069 | 1.05 ± 0.029 | 1.03 ± 0.017 | 1.02 ± 0.033 | 1.06 ± 0.021 | 1.07 ± 0.022 | 1.06 ± 0.044 | 1.1 ± 0.035 | 1.15 ± 0.08 | 1.08 ± 0.051
8 | SUM149.B1*.S BREAST | 1.11 ± 0.044 | 1.1 ± 0.027 | 1.11 ± 0.021 | 1.1 ± 0.023 | 1.1 ± 0.026 | 1.1 ± 0.06 | 1.03 ± 0.034 | 0.98 ± 0.032 | 1.075 ± 0.01 | 1.09 ± 0.021 | 1.13 ± 0.075 | 1.12 ± 0.016 | 1.14 ± 0.055 | 1.16 ± 0.038 | 1.12 ± 0.067 | 1.2 ± 0.029
9 | HSSYII SYNOVIAL | 1.04 ± 0.026 | 0.9723 ± 0.0083 | 1.05 ± 0.022 | 1.03 ± 0.047 | 1.03 ± 0.017 | 1.03 ± 0.067 | 0.995 ± 0.051 | 0.98 ± 0.065 | 1.04 ± 0.019 | 1.01 ± 0.014 | 0.979 ± 0.07 | 1.08 ± 0.028 | 1.02 ± 0.046 | 1.039 ± 0.0068 | 1.01 ± 0.066 | 1.04 ± 0.036
10 | DU4475 BREAST | 0.921 ± 0.068 | 0.955 ± 0.045 | 0.82 ± 0.095 | 0.914 ± 0.01 | 0.879 ± 0.14 | 0.906 ± 0.16 | 1.01 ± 0.1 | 0.889 ± 0.069 | 0.894 ± 0.08 | 0.836 ± 0.06 | 0.943 ± 0.095 | 0.937 ± 0.014 | 0.876 ± 0.051 | 0.892 ± 0.12 | 0.973 ± 0.18 | 0.872 ± 0.015
11 | CCK81 LARGE INTESTINE | 0.85 ± 0.091 | 0.849 ± 0.081 | 0.77 ± 0.12 | 0.72 ± 0.06 | 0.628 ± 0.091 | 0.325 ± 0.12 | 0.0823 ± 0.018 | 0.076 ± 0.012 | 0.841 ± 0.1 | 0.867 ± 0.052 | 0.744 ± 0.14 | 0.819 ± 0.059 | 0.774 ± 0.094 | 0.732 ± 0.099 | 0.735 ± 0.089 | 0.813 ± 0.077
12 | HCC1954 BREAST | 1.25 ± 0.17 | 1.25 ± 0.25 | 1.01 ± 0.029 | 1.2 ± 0.13 | 0.855 ± 0.011 | 0.702 ± 0.0081 | 0.459 ± 0.064 | 0.408 ± 0.016 | 1.05 ± 0.12 | 1.07 ± 0.076 | 1.39 ± 0.077 | 1.27 ± 0.065 | 1.11 ± 0.033 | 0.959 ± 0.038 | 1.08 ± 0.024 | 0.859 ± 0.088
13 | CASKI CERVIX | 0.956 ± 0.025 | 0.929 ± 0.096 | 0.851 ± 0.032 | 0.815 ± 0.042 | 0.556 ± 0.015 | 0.471 ± 0.011 | 0.308 ± 0.018 | 0.213 ± 0.0095 | 0.944 ± 0.024 | 0.881 ± 0.056 | 0.952 ± 0.029 | 0.93 ± 0.055 | 1.01 ± 0.027 | 1 ± 0.051 | 0.933 ± 0.034 | 0.972 ± 0.11
14 | A549 LUNG | 1.05 ± 0.043 | 1.05 ± 0.024 | 1.07 ± 0.04 | 1.02 ± 0.013 | 1.05 ± 0.033 | 1.05 ± 0.051 | 1.05 ± 0.047 | 1.03 ± 0.037 | 1.04 ± 0.039 | 1.05 ± 0.025 | 1.05 ± 0.045 | 1.05 ± 0.029 | 1.08 ± 0.044 | 1.08 ± 0.045 | 1.11 ± 0.057 | 1.05 ± 0.044
15 | SG32 HEADNECK | 1.33 ± 0.14 | 1.37 ± 0.097 | 1.39 ± 0.32 | 1.19 ± 0.24 | 1.28 ± 0.066 | 1.1 ± 0.12 | 0.826 ± 0.15 | 0.961 ± 0.094 | 1.37 ± 0.15 | 1.15 ± 0.063 | 1.29 ± 0.13 | 1.18 ± 0.26 | 1.22 ± 0.063 | 1.1 ± 0.12 | 1.64 ± 0.21 | 1.19 ± 0.062
16 | LM7 BONE | 0.988 ± 0.039 | 1.01 ± 0.034 | 1.1 ± 0.07 | 1.1 ± 0.036 | 1.12 ± 0.013 | 1.12 ± 0.1 | 0.963 ± 0.054 | 0.825 ± 0.016 | 0.979 ± 0.059 | 0.963 ± 0.023 | 1.06 ± 0.05 | 1.1 ± 0.086 | 1.04 ± 0.038 | 1.04 ± 0.023 | 0.944 ± 0.044 | 1.02 ± 0.068
17 | NOS1 BONE | 1.1 ± 0.073 | 1.11 ± 0.032 | 1.25 ± 0.23 | 1.22 ± 0.29 | 1.17 ± 0.085 | 1.11 ± 0.046 | 0.871 ± 0.048 | 0.754 ± 0.031 | 1.18 ± 0.12 | 1.15 ± 0.34 | 1.16 ± 0.071 | 1.25 ± 0.051 | 1.18 ± 0.019 | 1.21 ± 0.054 | 1.12 ± 0.11 | 1.16 ± 0.075
18 | HMLE3 BREAST | 1.11 ± 0.075 | 1.03 ± 0.016 | 1.07 ± 0.016 | 1.08 ± 0.031 | 1.04 ± 0.051 | 0.963 ± 0.07 | 0.904 ± 0.1 | 0.843 ± 0.083 | 1.08 ± 0.07 | 1.06 ± 0.032 | 1.08 ± 0.1 | 1.06 ± 0.025 | 1.04 ± 0.15 | 1.09 ± 0.076 | 1.1 ± 0.061 | 1.03 ± 0.17
